The structures appear in SMILES notation. Calls of active or inactive are those of the source. The rule behind the calls is not given here.

In the test the test system is PC-3. The test is described as follows: Antiproliferative activity against human PC3 cells at 20 ug/ml after 24 hrs by MTT assay. It is filed as functional, cell-based. (Tetrazolium dyes change colour on reduction, which living cells bring about.)
`CCCCCCCCCCCC[C@H](O)[C@H]1CC[C@H]([C@H](O)CC(O)CCCCCCCC[C@H](O)CC2=C[C@H](C)OC2=O)O1` (stereo partly drawn): the inhibition result is “Active”.

Regarding `CCCCCCCC[C@@H](O)[C@@H](O)CC[C@H](O)[C@H]1CC[C@H](CCCCCCCCCCC[C@H](O)CC2=C[C@H](C)OC2=O)O1`, the inhibition entry was “Active”.

For the compound `CCCCCCCC(O)CCCCCCC[C@@H](O)[C@H]1CC[C@H]([C@H](O)CCCCCCC[C@H](O)CC2=C[C@H](C)OC2=O)O1` (stereo partly drawn), the inhibition result was “Active”.

(Values after ChEMBL document CHEMBL3286265, “Three new anti-proliferative Annonaceous acetogenins with mono-tetrahydrofuran ring from graviola fruit (Annona muricata)” (Bioorg Med Chem Lett, 2014).)
